Series [1] deals with MDA-MB-436 (mutated BRCA1) cells. The series can be described thus: Cell growth inhibition assay (CellTiter-Glo), MDA-MB-436. The note with it: Homo sapiens, MDA-MB-436, 168 h; cell viability, CellTiter Glo 2.0, 7 days. It is filed as cell-based. From the text:
The objective of this study is to evaluate the effect of compound disclosed herein on cell proliferation through the cell viability assay in DLD-1 BRCA2(−/−) and parental isogenic pair and MDA-MB-436 (mutated BRCA1) cell lines. The CellTiter-Glo (CTG) based cell viability assay is designed to determine the number of viable cells in the culture because of compound effect, by quantifying ATP, which indicates the presence of metabolically active cells.
(§1) DLD-1 BRCA2(−/−) and parental isogenic pair were cultured in RPMI 1640 supplemented with 10% fetal bovine serum (FBS), and MDA-MB-436 cells were cultured in DMEM supplemented with 10% FBS. Both are culture at 37° C. with 5% CO2. Invention compounds were distributed to the 384 well plate (Corning, 3764) using Echo acoustic liquid handler to form a 1:3 serially diluted final concentration with top dose of 10 or 30 μM. The cells were seeded into the plate in the density of 50 cells/well (DLD-1 parental), 200 cells/well (DLD-1 BRCA2−/−), or 500 cells/well (MDA-MB-436). After a short spun, the cells were cultured in a well moisturized incubator at 37° C. with 5% CO2 for 7 days without disturbance. The cell viability was measured by CellTiter Glo 2.0 assay kit (Promega, G9243), and growth inhibition rate was calculated and plotted against final compound concentration, and the data were fitted in Xfit to generate IC50.

The target of a further series is BCRP (Homo sapiens (Human), UniProt Q9UNQ0). The series can be described thus: In vitro human transporter efflux, MDCKII cells expressing BCRP. The note with it: 10 μM, 2-hour incubation; for Papp A→B at 2 h, 10 μM: pH 7.4, apical-to-basolateral, pH7.4, read-out: BCRP Papp AB; for Papp B→A at 2 h, 10 μM: pH 7.4, basolateral-to-apical, pH7.4, read-out: BCRP Papp BA. It counts as in vitro ADME. Here is the method:
(§2) Madin-Darby canine kidney (MDCKII) cells expressing either MDR1 or BCRP were seeded onto Corning HTS Transwell® 96-well polycarbonate permeable (0.4 μm pore) supports at a density of 545,000 cells/cm^2. Cells were incubated for 4-8 days prior to assay, and monolayer integrity was assessed by measuring transepithelial electrical resistance (TEER). […] The final organic solvent concentration was 0.5% (v/v). Bidirectional (apical-to-basolateral and basolateral-to-apical) flux of the test and reference compounds was determined over a 2-hour incubation at 37° C. and 5% CO2 with a relative humidity of 95%. At the end of the incubation, samples from the apical and basolateral side were taken and then precipitated with acetonitrile containing internal standard. After centrifugation at 3200×g, supernatants were diluted 1:1 (v/v) with water and subjected to analysis via HPLC-MS/MS.
(§3) Apparent permeability (Papp, ×10^−6 cm/s) was calculated for all transport assays using the following equation: […]
(§4) Efflux ratio was determined by calculating the ratio of the Papp in the basolateral-to-apical direction to the Papp in the apical-to-basolateral direction using the following equation: […]

The subject of another series is DLD-1 BRCA2(−/−) cells. As to the kind of experiment: Cell growth inhibition assay (CellTiter-Glo), DLD-1 BRCA2(−/−). It counts as cell-based. The settings on record: Homo sapiens, DLD-1, 168 h; cell viability, CellTiter Glo 2.0, 7 days. The protocol: The objective of this study is to evaluate the effect of compound disclosed herein on cell proliferation through the cell viability assay in DLD-1 BRCA2(−/−) and parental isogenic pair and MDA-MB-436 (mutated BRCA1) cell lines.
as §1, with “Invention compounds were distributed to the 384 well plate (Corning, 3764) using Echo acoustic liquid handler to form a 1:3 serially diluted final concentration with top dose of 10 or 30 μM.” left out

The target in a further series is MDR1 (Homo sapiens (Human), UniProt P08183). The series can be described thus: In vitro human transporter efflux, MDCKII cells expressing MDR1. It is filed as in vitro ADME. The settings on record: for Papp A→B at 2 h, 10 μM: MDCK-MDR1, pH 7.4, apical-to-basolateral, pH7.4, read-out: MDCK-MDR1 Papp AB; for Papp A→B at 2 h, 10 μM / Papp B→A at 2 h, 10 μM: 2-hour incubation; for Papp B→A at 2 h, 10 μM: MDCK-MDR1, pH 7.4, basolateral-to-apical, pH7.4, read-out: MDCK-MDR1 Papp BA; for efflux ratio at 2 h, 10 μM: MDCK-MDR1, pH 7.4, efflux ratio Papp BA/Papp AB. Here is the method:
as §2, §3, §4

The next series addresses PARP1 (Homo sapiens (Human), UniProt P09874). The series can be described thus: Biochemical fluorescence polarization (FP) assay, PARPi-FL displacement, PARP1. It counts as binding. The settings on record: 20 nM protein, 3 nM PARPi-FL, 4 h at room temperature. Here is the method:
(§5) To characterize our compounds, we utilized an assay measuring the displacement of a commercially available fluorescently labeled PARP 1/2 inhibitor (PARPi-FL, Tocris Biosciences, #6461) as exemplified in assays performed in WO2014/064149 and WO2021/013735A1. The assay was performed utilizing the following method: Compounds were dissolved in DMSO an Echo550 liquid handler was utilized to make serial dilations in the desired concentration range in Optiplate-384F plates. 100% DMSO was used for the high (with protein) and low (without protein) control samples. 20 nL of compound or DMSO alone was added to individual assay plate wells. […] The PARPi-FL was then added at a final concentration of 3 nM. The assay plate is centrifuged at 1000 rpm for 1 min and incubated for 4 h at room temperature. […] XLFit (equation 201) is used to calculate a reported IC50 for each compound.
(In general: In fluorescence polarisation assays a small probe gives low polarisation when free and higher when bound to something large.)

The target of a further series is PARP2 (Homo sapiens (Human), UniProt Q9UGN5). As to the kind of experiment: Biochemical fluorescence polarization (FP) assay, PARPi-FL displacement, PARP2. It counts as binding. The settings on record: 20 nM protein, 3 nM PARPi-FL, 4 h at room temperature. The protocol:
as §5

Series [2] can be described thus: HLM stability, predicted human hepatic clearance. It is filed as in vitro ADME. The note with it: well-stirred model, 1 μM, 0.5 mg/mL microsomal protein, NADPH. The protocol:
Working stocks of individual test articles were prepared at a concentration of 100 μM by diluting 10 mM stocks prepared in DMSO 100-fold (v:v) into ACN. Thawed hepatic microsomes were suspended in 100 mM potassium phosphate buffer, pH 7.4 to a microsomal protein concentration of 0.562 mg/mL. Diluted microsomes were combined with a solution of 10 mM NADPH, and the mixture was pre-warmed to 37° C. for 8 min. Reactions were initiated by addition of the test article working stocks to achieve a final test article concentration of 1 μM. Final microsomal protein and NADPH concentrations were 0.5 mg/mL and 1 mM, respectively. Incubations containing NADPH were run in duplicate. Test article losses mediated by non-CYP mechanisms were evaluated in a parallel set of incubations run in the absence of NADPH. Incubations lacking NADPH consisted of 1 replicate per test article. Following incubation in a 37° C. water bath, aliquots of individual reactions were quenched with cold ACN containing internal standards at […], 15-, 30-, 60-, 90-, and 120-min. Precipitated protein was pelleted via refrigerated centrifugation. Supernatants were diluted into an equal volume of pure water and mixed well prior to analysis via LC-MS/MS. In vitro intrinsic clearances (CLint) in μL/min/mg were determined for each incubation from calculated in vitro half-lives determined using a standard log-linear regression approach. In vitro CLint values were scaled up using the following physiological scaling factors: 40 mg microsomal protein/g human liver and 25.7 g human liver/kg body weight.

Series [3] in a line: hHEP stability, predicted human hepatic clearance. The note with it: well-stirred model, 0.5×10^6 viable cells/mL. It is filed as in vitro ADME. Here is the method: Working stocks of individual test articles were prepared at concentrations of 100 μM by diluting 10 mM stocks prepared in DMSO 100-fold (v:v) into ACN/H2O (50/50, v:v). Human cryopreserved hepatocytes were thawed in a 37° C. water bath in <2 min., suspended in thawing media, and then centrifuged at 100×g for 10 min. Thawing media was aspirated, and pelleted hepatocytes were resuspended into incubation media at 1.5×10^6 cells/mL. Cell viability was determined using an Acridine Orange/Propidium Iodine stain, and hepatocytes were further diluted with incubation media to 0.5×10^6 viable cells/mL. Hepatocyte aliquots of 198 μL were added to wells of a 96-well plate, and test article incubations were initiated by the addition of 2 μL of 100 μM working stocks. Plates were incubated at 37° C. in a 5% CO2 atmosphere at 95% relative humidity on an orbital shaker at 300 rpm. Incubations were performed in duplicate. Following incubation, aliquots of individual reactions were terminated by addition of ACN containing internal standards at 0, 30-, 60-, 90-, 120-, and 240-min. Precipitated protein was pelleted via refrigerated centrifugation. Supernatants were diluted into an equal volume of pure water and mixed well prior to analysis via LC-MS/MS. In vitro intrinsic clearances (CLint) in μL/min/10^6 cells were determined for each incubation from calculated in vitro half-lives determined using a standard log-linear regression approach. In vitro CLint values were scaled up using the following physiological scaling factors: 99×10^6 cells/g human liver and 25.7 g human liver/kg body weight.

For orientation: EC50 means the midpoint of the concentration-response curve. For orientation: IC50 means the concentration that gives 50% inhibition. A higher IC50 goes with a need for much substance. The term efflux ratio denotes a quotient of directional permeabilities that is used to spot active efflux.

Chain of PARP2 (Q9UGN5 whole entry): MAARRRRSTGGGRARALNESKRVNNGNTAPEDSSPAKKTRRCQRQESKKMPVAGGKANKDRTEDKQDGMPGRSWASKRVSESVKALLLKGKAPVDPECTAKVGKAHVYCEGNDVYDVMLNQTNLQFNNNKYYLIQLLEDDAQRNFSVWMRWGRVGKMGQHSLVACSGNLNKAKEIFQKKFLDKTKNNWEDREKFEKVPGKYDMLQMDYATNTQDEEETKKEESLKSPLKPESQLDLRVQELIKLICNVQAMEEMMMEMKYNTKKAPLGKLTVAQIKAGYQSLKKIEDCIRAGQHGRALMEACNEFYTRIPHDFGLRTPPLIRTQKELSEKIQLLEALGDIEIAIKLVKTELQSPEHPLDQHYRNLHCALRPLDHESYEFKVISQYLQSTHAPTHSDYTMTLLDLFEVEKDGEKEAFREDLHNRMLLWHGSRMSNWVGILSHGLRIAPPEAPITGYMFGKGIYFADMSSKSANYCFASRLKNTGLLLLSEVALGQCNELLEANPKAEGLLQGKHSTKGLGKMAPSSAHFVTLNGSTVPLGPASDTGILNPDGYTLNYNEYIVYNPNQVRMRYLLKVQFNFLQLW
Chain of MDR1 (P08183 whole entry): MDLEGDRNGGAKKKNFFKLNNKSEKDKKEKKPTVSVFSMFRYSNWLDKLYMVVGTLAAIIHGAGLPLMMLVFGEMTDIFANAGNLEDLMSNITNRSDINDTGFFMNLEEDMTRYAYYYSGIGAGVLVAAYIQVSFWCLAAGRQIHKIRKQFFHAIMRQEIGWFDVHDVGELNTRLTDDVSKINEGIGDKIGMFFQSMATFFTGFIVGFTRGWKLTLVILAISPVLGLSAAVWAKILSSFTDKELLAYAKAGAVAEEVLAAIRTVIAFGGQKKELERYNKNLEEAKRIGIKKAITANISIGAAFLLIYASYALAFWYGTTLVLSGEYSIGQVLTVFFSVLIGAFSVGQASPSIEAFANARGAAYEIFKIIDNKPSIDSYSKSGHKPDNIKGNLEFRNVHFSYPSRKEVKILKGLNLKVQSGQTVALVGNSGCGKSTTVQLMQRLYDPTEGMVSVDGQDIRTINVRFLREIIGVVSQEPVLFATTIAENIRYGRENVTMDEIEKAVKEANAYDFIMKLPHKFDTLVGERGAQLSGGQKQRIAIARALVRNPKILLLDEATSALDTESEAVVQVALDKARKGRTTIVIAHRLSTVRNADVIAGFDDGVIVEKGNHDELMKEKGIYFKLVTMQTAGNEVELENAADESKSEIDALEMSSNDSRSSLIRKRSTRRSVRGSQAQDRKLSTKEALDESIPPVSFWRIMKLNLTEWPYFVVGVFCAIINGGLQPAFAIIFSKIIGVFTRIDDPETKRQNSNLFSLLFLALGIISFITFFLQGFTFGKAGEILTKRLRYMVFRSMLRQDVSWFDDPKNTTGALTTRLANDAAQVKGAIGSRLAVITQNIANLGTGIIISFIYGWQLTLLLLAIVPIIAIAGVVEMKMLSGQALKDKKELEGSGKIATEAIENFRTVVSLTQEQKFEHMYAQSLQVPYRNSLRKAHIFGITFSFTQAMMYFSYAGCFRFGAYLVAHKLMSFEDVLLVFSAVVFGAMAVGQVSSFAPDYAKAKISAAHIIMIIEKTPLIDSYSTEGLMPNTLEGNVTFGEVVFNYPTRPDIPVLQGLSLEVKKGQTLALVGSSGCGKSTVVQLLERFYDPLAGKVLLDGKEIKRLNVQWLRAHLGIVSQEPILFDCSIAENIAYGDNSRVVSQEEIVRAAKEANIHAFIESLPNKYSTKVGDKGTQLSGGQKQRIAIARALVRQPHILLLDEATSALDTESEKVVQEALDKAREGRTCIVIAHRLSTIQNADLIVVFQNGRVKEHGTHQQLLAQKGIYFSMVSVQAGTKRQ
Chain of BCRP (Q9UNQ0 whole entry): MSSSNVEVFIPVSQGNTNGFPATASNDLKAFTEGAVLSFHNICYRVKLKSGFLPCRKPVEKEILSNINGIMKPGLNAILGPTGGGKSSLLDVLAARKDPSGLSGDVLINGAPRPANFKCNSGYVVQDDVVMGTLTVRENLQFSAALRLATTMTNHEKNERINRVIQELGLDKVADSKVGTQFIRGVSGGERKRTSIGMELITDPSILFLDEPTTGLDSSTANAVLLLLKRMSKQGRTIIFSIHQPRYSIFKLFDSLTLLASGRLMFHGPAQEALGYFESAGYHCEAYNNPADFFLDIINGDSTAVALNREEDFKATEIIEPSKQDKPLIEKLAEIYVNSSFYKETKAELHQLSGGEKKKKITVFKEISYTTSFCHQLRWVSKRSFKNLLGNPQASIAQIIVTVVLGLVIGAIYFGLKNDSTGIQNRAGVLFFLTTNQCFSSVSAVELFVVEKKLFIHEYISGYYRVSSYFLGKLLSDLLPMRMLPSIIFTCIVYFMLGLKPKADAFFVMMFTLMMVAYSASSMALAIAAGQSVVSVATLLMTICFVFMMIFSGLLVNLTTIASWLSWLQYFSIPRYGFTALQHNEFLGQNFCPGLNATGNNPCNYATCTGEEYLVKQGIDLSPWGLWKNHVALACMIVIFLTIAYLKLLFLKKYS
Chain of PARP1 (P09874 whole entry): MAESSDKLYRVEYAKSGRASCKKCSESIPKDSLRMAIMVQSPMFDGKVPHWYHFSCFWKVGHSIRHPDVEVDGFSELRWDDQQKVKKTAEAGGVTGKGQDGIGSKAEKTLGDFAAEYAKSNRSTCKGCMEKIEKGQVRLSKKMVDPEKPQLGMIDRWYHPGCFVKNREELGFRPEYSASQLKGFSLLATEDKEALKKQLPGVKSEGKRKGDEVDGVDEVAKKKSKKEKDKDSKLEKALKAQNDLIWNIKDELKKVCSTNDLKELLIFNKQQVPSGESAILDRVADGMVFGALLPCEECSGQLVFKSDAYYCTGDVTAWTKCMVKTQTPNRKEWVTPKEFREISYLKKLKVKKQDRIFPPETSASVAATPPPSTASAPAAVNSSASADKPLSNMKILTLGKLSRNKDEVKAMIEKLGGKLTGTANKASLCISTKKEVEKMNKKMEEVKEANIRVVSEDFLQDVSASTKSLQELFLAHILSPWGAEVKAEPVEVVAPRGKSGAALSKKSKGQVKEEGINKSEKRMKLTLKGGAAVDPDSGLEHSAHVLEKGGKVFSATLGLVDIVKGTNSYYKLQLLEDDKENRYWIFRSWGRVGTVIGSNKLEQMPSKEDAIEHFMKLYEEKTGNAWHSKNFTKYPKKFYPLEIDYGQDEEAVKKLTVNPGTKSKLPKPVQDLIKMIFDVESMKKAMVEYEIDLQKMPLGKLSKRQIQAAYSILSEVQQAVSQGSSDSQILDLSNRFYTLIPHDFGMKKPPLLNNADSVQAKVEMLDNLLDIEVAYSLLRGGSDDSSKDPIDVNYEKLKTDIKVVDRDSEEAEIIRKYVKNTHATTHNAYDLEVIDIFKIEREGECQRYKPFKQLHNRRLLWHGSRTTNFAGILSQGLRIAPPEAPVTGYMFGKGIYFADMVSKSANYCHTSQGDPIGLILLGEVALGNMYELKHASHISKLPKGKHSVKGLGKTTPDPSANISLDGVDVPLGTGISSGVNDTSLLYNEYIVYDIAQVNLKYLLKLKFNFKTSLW

`[2H]C([2H])([2H])NC(=O)c1ccc(N2CCN(Cc3ccc4c5c(c(=O)[nH]c4c3F)CCO5)CC2)c(F)n1` (single isomer, unassigned) [Example 22]: the EC50 in series [1] stood at 4.9 nM; with DLD-1 BRCA2(−/−) cells it was 6.6 nM. In addition, the Papp A→B at 2 h, 10 μM was found to be 28.2 ×10⁻⁶ cm/s on BCRP and 15.1 ×10⁻⁶ cm/s on MDR1. Besides, the Papp B→A at 2 h, 10 μM is 23.6 ×10⁻⁶ cm/s on BCRP and 23.3 ×10⁻⁶ cm/s on MDR1.
Take `[2H]C([2H])(c1ccc2c3c(c(=O)[nH]c2c1F)CCO3)N1CCN(c2ccc(C(=O)NC)nc2F)CC1` (single isomer, unassigned) [Example 24]: the 50% effective concentration (EC50) in series [1] came out at 3 nM; in the series on DLD-1 BRCA2(−/−) cells, 3.8 nM. Moreover, the Papp A→B at 2 h, 10 μM turned out to be 22.9 ×10⁻⁶ cm/s at BCRP and 16.3 ×10⁻⁶ cm/s on MDR1. Moreover, the Papp B→A at 2 h, 10 μM at BCRP came to 24.4 ×10⁻⁶ cm/s; on MDR1, 32.9 ×10⁻⁶ cm/s.
Turning to `[2H]C([2H])([2H])NC(=O)c1ccc(N2CCN(Cc3ccc4c([nH]c(=O)c5c(F)cnn54)c3F)CC2)c(F)n1` (single isomer, unassigned) [Example 33], the EC50 in series [1] was determined as 0.79 nM; in the series with DLD-1 BRCA2(−/−) cells, 0.96 nM. The IC50 was 11 nM at PARP1 and > 100 µM on PARP2.
For `[2H]C([2H])(c1ccc2c([nH]c(=O)c3c(F)cnn32)c1F)N1CCN(c2ccc(C(=O)NC)nc2F)CC1` (single isomer, unassigned) [Example 34], the EC50 is 1.1 nM in series [1] and 0.99 nM in the series with DLD-1 BRCA2(−/−) cells. The IC50 on PARP1 is 40 nM; at PARP2, > 100 µM.
In series [1], `CNC(=O)c1ccc(N2CCN(Cc3ccc4c5c(c(=O)[nH]c4c3)CCO5)CC2)c(C)n1` [Comp. Ex. 1, N,6-dimethyl-5-[4-({4-oxo-2H,3H,5H-furo[3,2-c]quinolin-7-yl}methyl)piperazin-1-yl]pyridine-2-carboxamide, reference compound] registered an EC50 of 0.6 nM. Also, in series [2], the “HLM Clh” value is recorded as <4 mL/min/kg. Further, the “HHEP Clh” value in series [3] is <3.3 mL/min/kg. This compound returned a concentration giving a half-maximal response (EC50) in the series with DLD-1 BRCA2(−/−) cells of 2 nM. Further, on MDR1, the Papp A→B at 2 h, 10 μM was determined as 7.5 ×10⁻⁶ cm/s and the Papp B→A at 2 h, 10 μM is 39.8 ×10⁻⁶ cm/s.
In series [1], `CNC(=O)c1ccc(N2CCN(Cc3ccc4c5c(c(=O)[nH]c4c3)CCO5)CC2)c(Cl)n1` [Comp. Ex. 2, 6-chloro-N-methyl-5-[4-({4-oxo-2H,3H,5H-furo[3,2-c]quinolin-7-yl}methyl)piperazin-1-yl]pyridine-2-carboxamide, reference compound] displayed an EC50 of 0.7 nM. Moreover, the “HLM Clh” value in series [2] is 4.2 mL/min/kg. The “HHEP Clh” value in series [3] is given as 6.6 mL/min/kg. Moreover, in the series with DLD-1 BRCA2(−/−) cells, the EC50 was determined as 1.7 nM. At MDR1, the Papp A→B at 2 h, 10 μM amounted to 5.7 ×10⁻⁶ cm/s; the Papp B→A at 2 h, 10 μM came to 29 ×10⁻⁶ cm/s; the efflux ratio at 2 h, 10 μM turned out to be 5.1.
For `CNC(=O)c1ccc(N2CCN(Cc3cc(F)c4c5c(c(=O)[nH]c4c3)COC5)CC2)c(F)n1` [Comp. Ex. 3, 6-fluoro-5-(4-((9-fluoro-4-oxo-1,3,4,5-tetrahydrofuro[3,4-c]quinolin-7-yl)methyl)piperazin-1-yl)-N-methylpicolinamide, reference compound], a half-maximal response in series [1] (EC50) required 0.4 nM. Further, the “HLM Clh” value in series [2] is 7.2 mL/min/kg. For the same compound, in series [3], the “HHEP Clh” value was 7.1 mL/min/kg. This compound gave an EC50 in the series with DLD-1 BRCA2(−/−) cells of 1.6 nM. On MDR1, the Papp A→B at 2 h, 10 μM is 6.6 ×10⁻⁶ cm/s; the Papp B→A at 2 h, 10 μM was determined as 32.3 ×10⁻⁶ cm/s; the efflux ratio at 2 h, 10 μM was found to be 5.
For the compound `[2H]C([2H])([2H])NC(=O)c1ccc(N2CCN(Cc3ccc4c([nH]c(=O)c5ccoc54)c3F)CC2)c(F)n1` [Example 30], the figures for the EC50 (in series [1]; with DLD-1 BRCA2(−/−) cells) were 4.6 nM and 6.5 nM, respectively. In addition, the IC50 was 56 nM at PARP1 and > 100 µM at PARP2.

The values are drawn from patent US11795173B1, “Substituted pyridines as PARP1 inhibitors” (Xinthera, Inc., priority 2022, dated 2023).
